According to patent US20250032484A1, “THERAPEUTIC TARGETS AND AGENTS FOR THE TREATMENT OF POSTTRAUMATIC STRESS DISORDER” (priority 2021, published 2025):

System: VA patients with PTSD (PTSD symptoms, PTSD Checklist)
Assay: TreeScan nested case-control study of medications associated with PTSD symptom improvement (PTSD Checklist) in VA records
Format: in vivo, human
Settings: for association with PTSD symptom improvement, in words (statistical alert at P<0.1): overall sample
Procedure: Study Sample and Data Sources. A nested case-control study was conducted within a previously established retrospective cohort that included all VA users with a clinical diagnosis of PTSD (International Classification of Diseases [ICD]-9:309.81, ICD-10: F43.1x) from Oct. 1, 1999 through Sep. 30, 2019 (Shiner et al. (2021) J Eval Clin Pract.). The data source contains information on services use, clinical diagnoses, filled prescriptions, and patient-reported outcome measures (PROMs) for PTSD using the PTSD Checklist (PCL) for these patients. This study was approved by the Veterans Institutional Review Board of Northern New England.
The goal of the current study was to evaluate any filled medications associated with PTSD symptom improvement, and as such, the analytic sample for this study included only patients with PROMs that were at least 30 days apart. 30 days was selected to allow for medications to be taken for at least one full course (typically 28 days). Patients with PROMs more than 365 days apart were excluded as these are unlikely to provide an accurate assessment of PTSD symptom change between the two time points. For patients who had two overlapping PROM intervals, those closest to 84 days in length were chosen to emulate typical PTSD medication efficacy trials (Watts et al. (2013) J Clin Psychiatry. 74: e541-550). When a patient had two or more overlapping intervals at exactly 84 days, the historically earliest interval was chosen. If patients had multiple non-overlapping intervals, all were included. Patients who met the selection criteria for PTSD in the original cohort and had at least one PROM pair where they started a new medication (defined below) constituted the overall analytic sample for the current study.
PTSD Improvement Cases and No Improvement Controls. In order to maximize the number of patients with available symptomatic measurement, two different versions of a PROM for PTSD were integrated into a single dataset (Shiner et al. (2021) J Eval Clin Pract.). The two PROMs were the PCL versions aligned to the Diagnostic and Statistical Manual of Mental Disorders (DSM), version IV and Version 5 (APA (2000): Diagnostic and Statistical Manual of Mental Disorders. 4th Edition. Text Revision: DSM-IV-TR. Arlington, VA: American Psychiatric Association: APA (2013): Diagnostic and Statistical Manual of Mental Disorders: Fifth Edition (DSM-5). Washington, D.C.: American Psychiatric Association), which will heretofore be called the PCL-IV and the PCL-5 (Blevins et al. (2015) J Trauma Stress. 28:489-498: Weathers et al. (1993) Trauma. Coping. and Adaptation. San Antonio, Texas: International Society for Traumatic Stress Studies, 9th Annual Meeting). […] A validated crosswalk (ICC=0.96) was used to convert all values to PCL-5 scoring (Moshier et al. (Under review): An empirical crosswalk for the PTSD Checklist: Translating DSM-IV to DSM-5). PTSD improvement cases were defined by a clinically meaningful improvement, which was a decrease of 15 points or more between assessment points (Lee et al. (2019) Reliable Change Index and Clinically Significant Margins for the CAPS-5 and PCL-5 among Veterans. Boston, MA: International Society for Traumatic Stress Studies, 35th Annual Meeting). […] Thus, the no PTSD improvement control group was defined as worsening of symptoms or reductions of up to 7 points on the PCL. Improvements between 8 and 14 points were of uncertain clinical significance and were therefore excluded.
Identification and Classification of New Medications. The predictors of interest were initiation of medications for any indication. Candidate agents included those that were started in the interval between PCL pairs and continued for at least a 28-day supply. When patients started multiple medications between a given PCL pair, they contributed information for each of the medications in the tree.

[1] = all patients in the overall sample
[2] = baseline PCL score of 38 or higher and PTSD diagnosis within 30 days
[3] = case = improved by 15 or more points on PTSD Checklist, all patients in the overall sample
[4] = improvement in PTSD, all patients in the overall sample
[5] = baseline PCL 38 or higher, PTSD diagnosis within 30 days, without any concurrent evidence-based treatment
[6] = overall sample without any concurrent evidence-based treatment

Compound	EXP = Expected Cases [1]	EXP = Expected Cases [2]	O:E = Observed Cases over Expected Cases [2]	OBS = Observed Cases [2]	OBS = Observed Cases [3]	O:E = Observed Cases over Expected Cases [4]	EXP = Expected Cases [5]	O:E = Observed Cases over Expected Cases [5]	OBS = Observed Cases [5]	O:E = Observed Cases over Expected Cases (improvement in PTSD, all patients in the overall sample, listed as pibrentasvir)	EXP = Expected Cases [6]	O:E = Observed Cases over Expected Cases [6]	OBS = Observed Cases [6]	association with PTSD symptom improvement, in words (statistical alert at P<0.1)	O:E = Observed Cases over Expected Cases (improvement in PTSD, all patients in the overall sample, listed as velpatasvir)
Naloxone	312	279	1.35	376	426	1.37	–	–	–	–	–	–	–	–	–
COC(=O)N[C@H](C(=O)N1CCC[C@H]1c1nc2cc(F)c([C@H]3CC[C@H](c4cc5[nH]c([C@@H]6CCCN6C(=O)[C@@H](NC(=O)OC)[C@@H](C)OC)nc5cc4F)N3c3cc(F)c(N4CCC(c5ccc(F)cc5)CC4)c(F)c3)cc2[nH]1)[C@@H](C)OC [Pibrentasvir, pibrentasvir]	16	14	2.21	30	33	2.09	4	3.52	14	2.09	5	3.09	14	–	–
[Li] [Lithium]	246	–	–	–	304	1.24	–	–	–	–	92	1.38	127	similarly small associations	–
CC(C)OC(=O)[C@H](C)N[P@](=O)(OC[C@H]1O[C@@H](n2ccc(=O)[nH]c2=O)[C@](C)(F)[C@@H]1O)Oc1ccccc1 [sofosbuvir]	–	–	–	–	–	–	–	–	–	–	–	–	–	Neither sofosbuvir nor ledipasvir were associated with a significantly higher than expected improvement	–
Quetiapine	–	–	–	–	–	–	–	–	–	–	371	1.24	460	–	–
Fluoxetine	1571	–	–	–	1716	1.09	–	–	–	–	–	–	–	similarly small associations	–
CN(C)CCC[C@@]1(c2ccc(F)cc2)OCc2cc(C#N)ccc21 [Escitalopram]	–	–	–	–	–	–	–	–	–	–	474	–	558	–	–
CN(C)CCCC1(c2ccc(F)cc2)OCc2cc(C#N)ccc21 (stereo not shown) [Citalopram]	1508	1202	1.10	1315	1653	1.10	632	1.25	785	–	814	1.28	1039	similarly small associations	–
Sertraline	4025	3434	–	3909	4659	–	–	–	–	–	–	–	–	–	–
O=c1n(CCCN2CCN(c3cccc(Cl)c3)CC2)nc2ccccn12 [Trazodone]	4061	3396	1.07	3610	4308	1.06	893	1.12	992	–	1157	1.1	1272	similarly small associations	–
Cc1ncc(C[n+]2csc(CCO)c2C)c(N)n1 [Thiamine]	351	304	1.24	377	444	1.27	–	–	–	–	106	1.38	146	–	–
COC[C@H]1C[C@@H](c2ncc(-c3ccc4c(c3)COc3cc5c(ccc6[nH]c([C@@H]7CC[C@H](C)N7C(=O)[C@@H](NC(=O)OC)C(C)C)nc65)cc3-4)[nH]2)N(C(=O)[C@H](NC(=O)OC)c2ccccc2)C1 [Velpatasvir, velpatasvir]	11	10	2.17	21	24	2.10	–	–	–	–	–	–	–	–	2.10
Cholecalciferol	2470	2070	1.08	2238	2647	1.07	–	–	–	–	–	–	–	–	–
CN1CCCC1c1cccnc1 (stereo not shown) [Nicotine]	2109	1736	–	2007	2371	1.13	522	1.17	610	–	–	–	–	–	–
CNCC[C@@H](Oc1ccccc1C)c1ccccc1 [Atomoxetine]	74	65	1.41	92	104	1.40	–	–	–	–	–	–	–	–	–
CN1CCN2c3ncccc3Cc3ccccc3C2C1 (stereo not shown) [Mirtazapine]	–	–	–	–	–	–	–	–	–	–	755	1.13	849	–	–
COc1ccc2[nH]cc(CCNC(C)=O)c2c1 [Melatonin]	1161	1033	1.10	1131	1295	1.12	–	–	–	–	–	–	–	–	–
COC(=O)N[C@H](C(=O)N1CC2(CC2)C[C@H]1c1nc(-c2ccc3c(c2)C(F)(F)c2cc(-c4ccc5nc([C@@H]6[C@H]7CC[C@H](C7)N6C(=O)[C@@H](NC(=O)OC)C(C)C)[nH]c5c4)ccc2-3)c[nH]1)C(C)C [ledipasvir]	–	–	–	–	–	–	–	–	–	–	–	–	–	Neither sofosbuvir nor ledipasvir were associated with a significantly higher than expected improvement	–
Naltrexone	504	444	1.21	536	605	1.20	–	–	–	–	–	–	–	–	–
Nc1nc2ncc(CNc3ccc(C(=O)N[C@@H](CCC(=O)O)C(=O)O)cc3)nc2c(=O)[nH]1 [Folic Acid]	445	391	1.20	469	567	1.27	–	–	–	–	134	1.38	185	–	–
